In ChEMBL document CHEMBL1201862, “PubChem BioAssay data set” (2004):
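A five-concentration, 48-hour dose response in 96-well plates underlies each endpoint, interpolated linearly between surrounding concentrations. GI50 marks 50% less growth.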 The source made the active and inactive calls. No stated cut-off is given here; in the data, active = GI50 up to about 1.1 µM and inactive = higher.

Tests used:
Assay in all cases: growth of human tumour cells (NCI), 48 h
MCF7 = system: MCF7
A498 = system: A498
MOLT-4 = system: MOLT-4
DU-145 = system: DU-145
LOX IMVI = system: LOX IMVI
SF-268 = system: SF-268
OVCAR-8 = system: OVCAR-8
SK-MEL-28 = system: SK-MEL-28
BT-549 = system: BT-549
COLO 205 = system: COLO 205
SW-620 = system: SW-620
SNB-19 = system: SNB-19
Malme-3M = system: Malme-3M
OVCAR-4 = system: OVCAR-4
UACC-257 = system: UACC-257
HT-29 = system: HT-29
HCT-15 = system: HCT-15
U-251 = system: U-251
HL-60 = system: HL-60

Compound | GI50 (MCF7) | GI50 (A498) | GI50 (MOLT-4) | GI50 (DU-145) | GI50 (LOX IMVI) | GI50 (SF-268) | GI50 (OVCAR-8) | GI50 (SK-MEL-28) | GI50 (BT-549) | GI50 (COLO 205) | GI50 (SW-620) | GI50 (SNB-19) | GI50 (Malme-3M) | GI50 (OVCAR-4) | GI50 (UACC-257) | GI50 (HT-29) | GI50 (HCT-15) [µM] | GI50 (U-251) | GI50 (HL-60)
Nn1c(SCC(=O)O)nc2ccccc2c1=O | > 100 µM (inactive) | > 100 µM (inactive) | > 100 µM (inactive) | > 100 µM (inactive) | > 100 µM (inactive) | > 100 µM (inactive) | > 100 µM (inactive) | > 100 µM (inactive) | > 100 µM (inactive) | > 100 µM (inactive) | > 100 µM (inactive) | > 100 µM (inactive) | > 100 µM (inactive) | > 100 µM (inactive) | > 100 µM (inactive) | > 100 µM (inactive) | > 100 | > 100 µM (inactive) | –
COc1ccc2c(=O)c3c([nH]c2c1)OCC3=O | > 100 µM (inactive) | > 100 µM (inactive) | > 100 µM (inactive) | > 100 µM (inactive) | > 100 µM (inactive) | > 100 µM (inactive) | > 100 µM (inactive) | > 100 µM (inactive) | > 100 µM (inactive) | > 100 µM (inactive) | > 100 µM (inactive) | > 100 µM (inactive) | – | > 100 µM (inactive) | > 100 µM (inactive) | > 100 µM (inactive) | > 100 | > 100 µM (inactive) | > 100 µM (inactive)
Cc1ccc2nc(-n3c(/C=C/c4ccccc4O)nc4ccccc4c3=O)sc2c1 | > 100 µM (inactive) | > 100 µM (inactive) | > 100 µM (inactive) | > 100 µM (inactive) | > 100 µM (inactive) | – | > 100 µM (inactive) | > 100 µM (inactive) | > 100 µM (inactive) | > 100 µM (inactive) | > 100 µM (inactive) | > 100 µM (inactive) | – | > 100 µM (inactive) | > 100 µM (inactive) | > 100 µM (inactive) | > 100 | > 100 µM (inactive) | > 100 µM (inactive)
Clc1ccc(/C=N/c2ccc(Oc3ccc(Cl)cc3)c(Cl)c2)cc1 | 30.8 µM (inactive) | – | 25.5 µM (inactive) | 30.8 µM (inactive) | 18.8 µM (inactive) | 17.5 µM (inactive) | 29.4 µM (inactive) | 23.6 µM (inactive) | 21.7 µM (inactive) | 21.6 µM (inactive) | 31 µM (inactive) | 23 µM (inactive) | 20.2 µM (inactive) | 25.3 µM (inactive) | 30.9 µM (inactive) | 23.7 µM (inactive) | 21.8 | 23.9 µM (inactive) | 23.3 µM (inactive)
COC(NC(=O)Nc1ccccc1C)(C(F)(F)F)C(F)(F)F | > 100 µM (inactive) | > 100 µM (inactive) | > 100 µM (inactive) | > 100 µM (inactive) | > 100 µM (inactive) | > 100 µM (inactive) | > 100 µM (inactive) | > 100 µM (inactive) | 94.4 µM (inactive) | > 100 µM (inactive) | > 100 µM (inactive) | 44.4 µM (inactive) | – | > 100 µM (inactive) | – | > 100 µM (inactive) | – | 34.5 µM (inactive) | > 100 µM (inactive)
Cc1ccc(OC2CC(n3cnc4c(=O)[nH]c(Br)nc43)OC2Oc2ccc(C)cc2)cc1 (centres undefined) | 23.5 µM (inactive) | > 100 µM (inactive) | 23.9 µM (inactive) | 24.7 µM (inactive) | 26.2 µM (inactive) | 22.6 µM (inactive) | 25.3 µM (inactive) | – | 26.9 µM (inactive) | 31 µM (inactive) | 44.4 µM (inactive) | 21.5 µM (inactive) | 22.9 µM (inactive) | 37 µM (inactive) | 25 µM (inactive) | 28.6 µM (inactive) | 30.3 | 29.1 µM (inactive) | 30.3 µM (inactive)
C/C(=N\Nc1nc2cc(F)ccc2s1)c1ccccn1 | 0.0199 µM (active) | 12.1 µM (inactive) | 0.0102 µM (active) | 0.344 µM (active) | – | 0.0301 µM (active) | 0.0194 µM (active) | 0.294 µM (active) | 1.19 µM (inactive) | < 0.01 µM (active) | < 0.01 µM (active) | 0.391 µM (active) | < 0.01 µM (active) | 1.06 µM (active) | < 0.0182 µM (active) | < 0.01 µM (active) | < 0.022 | 0.0402 µM (active) | < 0.01 µM (active)
c1ccc([P+](CCNCCNCC[P+](c2ccccc2)(c2ccccc2)c2ccccc2)(c2ccccc2)c2ccccc2)cc1 | > 100 µM (inactive) | > 100 µM (inactive) | > 100 µM (inactive) | > 100 µM (inactive) | – | > 100 µM (inactive) | > 100 µM (inactive) | > 100 µM (inactive) | > 100 µM (inactive) | > 100 µM (inactive) | > 100 µM (inactive) | > 100 µM (inactive) | – | > 100 µM (inactive) | > 100 µM (inactive) | > 100 µM (inactive) | > 100 | > 100 µM (inactive) | –
